Source: patent US20110288033A1, “Disulfide Compounds for Phototherapy” (Mallinckrodt Inc., priority 2010, published 2011)

How the values were obtained:
UV spectrum in DMSO = assay type: physicochemical
[1] = test system: human myeloid leukemia U937 cell line; assay type: cell-based; conditions: 0, 2.5, 5 and 10 μM; light 0, 10, 20 minutes
Protocol: A general procedure is carried out for measuring cell viability upon exposure of cancer cells to a disulfide photosensitizer and light. The disulfide photosensitizer evaluated is a commercially available compound having formula (FX13): […]
Compound (FX13) was purchased from Sigma-Aldrich (Cat #158194). […] Preparation of compound (FX13) is known and can be found, for example, in Rath, C. Derivatives of pyridine. XII. Mercaptans and sulfonic acids of pyridine. Justus Liebigs Annalen der Chemie 1931, 487, 105-119, which is hereby incorporated by reference. Some properties of compound (FX13) are known and can be found, for example, in Grassetti, D. R.; Brokke, M. E.; Murray, J. F., Jr. The effect of some sulfur-containing pyridine derivatives on the carbohydrate metabolism of ehrlich ascites tumor. J. Med. Chem. 1965, 8, 753-756, which is hereby incorporated by reference. The cell viability analysis is carried out using a human myeloid leukemia U937 cell line by the standard WST-1 assay. […]
The disulfide photosensitizer is dissolved in DMSO at an initial concentration of about 8 mM and diluted with water to the final desired value such that amount of DMSO exposed to the cells is kept […]. […] The viability of cells is assessed after 24 hours following light exposure. […] The number of viable cells is determined and percent viability is determined: […]

Question: With `O=[N+]([O-])c1ccc(SSc2ccc([N+](=O)[O-])cn2)nc1` [FX13] as the compound, how does the “absorption λmax” value (UV spectrum in DMSO) read?
Answer: The value was 323 nm.

Question: And the “change in cell viability with photosensitizer and light (FIG. 5)” value [1]?
Answer: The value was “concentration-dependent and light exposure time-dependent decrease in cell viability”.
